Assay results taken from patent US20200325177A1, “METHODS OF MAKING STREPTOGRAMIN COMPOSITIONS AND THE USE THEREOF” (THE REGENTS OF THE UNIVERSITY OF CALIFORNIA, priority 2017, published 2020).
Values after ≈ are worked out from the molar mass of the structure shown. Read-outs that look alike come from different tables or passages of the source.

Columns and labels:
Type in all cases: cell-based
[1] = system: S. aureus Linezolid-resistant; cfr; assay: MIC, Gram-positive bacteria: S. aureus Linezolid-resistant; cfr; conditions: Staphylococcus aureus, column 9, read-out: Minimal Inhibitory Concentration (MIC) S. aureus Linezolid-resistant
[2] = system: P. aeruginosa MDR clinical isolate; assay: MIC, Gram-negative bacteria: P. aeruginosa MDR clinical isolate; conditions: Pseudomonas aeruginosa, read-out: Minimal Inhibitory Concentration (MIC) P. aeruginosa MDR clinical isolate
[3] = system: E. faecium VRE; vanA; assay: MIC, Gram-positive bacteria: E. faecium VRE; vanA; conditions: Enterococcus faecium, column 3, read-out: Minimal Inhibitory Concentration (MIC) E. faecium VRE
[4] = system: E. faecalis; assay: MIC, Gram-positive bacteria: E. faecalis; conditions: Enterococcus faecalis, column 1, read-out: Minimal Inhibitory Concentration (MIC) E. faecalis
[5] = system: Gram-Negative Organisms; assay: microbe, parasite or virus in culture
[6] = system: E. faecium ATCC 35667; assay: MIC, Gram-positive bacteria: E. faecium ATCC 35667; conditions: Enterococcus faecium, ATCC35667, column 2, read-out: Minimal Inhibitory Concentration (MIC) E. faecium ATCC 35667
[7] = system: P. aeruginosa ATCC 27853; assay: MIC, Gram-negative bacteria: P. aeruginosa ATCC 27853; conditions: Pseudomonas aeruginosa, ATCC27853, read-out: Minimal Inhibitory Concentration (MIC) P. aeruginosa ATCC 27853
[8] = system: S. aureus; assay: MIC, Gram-positive bacteria: S. aureus (strains not named); conditions: Staphylococcus aureus, read-out: Minimal Inhibitory Concentration (MIC) S. aureus
[9] = system: S. pneumoniae; assay: MIC, Gram-positive bacteria: S. pneumoniae; conditions: Streptococcus pneumoniae, column 10, read-out: Minimal Inhibitory Concentration (MIC) S. pneumoniae
[10] = system: H. influenzae ATCC 49247; assay: MIC, Gram-negative bacteria: H. influenzae ATCC 49247; conditions: Haemophilus influenzae, ATCC49247, read-out: Minimal Inhibitory Concentration (MIC) H. influenzae ATCC 49247
[11] = system: K. pneumoniae multidrug-resistant; assay: MIC, Gram-negative bacteria: K. pneumoniae multidrug-resistant; conditions: Klebsiella pneumoniae, read-out: Minimal Inhibitory Concentration (MIC) K. pneumoniae multidrug-resistant
[12] = system: S. aureus Vat A streptogramin; assay: MIC, Gram-positive bacteria: S. aureus Vat A streptogramin; conditions: Staphylococcus aureus; Gram-positive; column 5; read-out: Minimal Inhibitory Concentration (MIC) S. aureus Vat A streptogramin
[13] = Acinetobacter baumannii, ATCC19606, read-out: Minimal Inhibitory Concentration (MIC), A. baumannii ATCC 19606
[14] = Escherichia coli, ATCC25922, read-out: Minimal Inhibitory Concentration (MIC), E. coli ATCC 25922
[15] = Escherichia coli, read-out: Minimal Inhibitory Concentration (MIC), E. coli BAS2006, OMP C, OMP F
[16] = Escherichia coli, read-out: Minimal Inhibitory Concentration (MIC), E. coli olC efflux defective
[17] = Escherichia coli, read-out: Minimal Inhibitory Concentration (MIC), E. coli permeability mutant BAS1314, IMP4213ZAB::TN10
[18] = Escherichia coli, read-out: Minimal Inhibitory Concentration (MIC), E. coli ΔompC768, KanR insert
[19] = Klebsiella pneumoniae, ATCC43816, read-out: Minimal Inhibitory Concentration (MIC), K. pneumoniae ATCC 43816
[20] = first unnamed S. aureus column (c4)
[21] = fourth unnamed S. aureus column (c8)
[22] = second unnamed S. aureus column (c6)
[23] = third unnamed S. aureus column (c7)

Structure (SMILES) | MIC [1] | MIC [2] | MIC [3] | MIC [4] | MIC [5, 13] | MIC [5, 14] | MIC [5, 15] | MIC [5, 16] | MIC [5, 17] | MIC [5, 18] | MIC [5, 19] | MIC [6] | MIC [7] | MIC [8, 20] | MIC [8, 21] | MIC [8, 22] | MIC [8, 23] | MIC [9] | MIC [10] | MIC [11] | further results
CC1=C\[C@@H](O)CC(=O)Cc2nc(co2)C(=O)N2CCC[C@@H]2C(=O)O[C@H]([C@H](C)COC(=O)Nc2ccc3ccccc3n2)[C@H](C)/C=C/C(=O)NC\C=C\1 [SA0110223] | > 64 µg/mL | > 64 µg/mL | 16 µg/mL (≈ 22.4 µM) | > 64 µg/mL | > 64 µg/mL | > 64 µg/mL | 16 µg/mL (≈ 22.4 µM) | 2 µg/mL (≈ 2.8 µM) | 2 µg/mL (≈ 2.8 µM) | > 64 µg/mL | > 64 µg/mL | 4 µg/mL (≈ 5.6 µM) | > 64 µg/mL | 8 µg/mL (≈ 11.2 µM) | 4 µg/mL (≈ 5.6 µM) | 8 µg/mL (≈ 11.2 µM) | 16 µg/mL (≈ 22.4 µM) | 32 µg/mL (≈ 44.8 µM) | 8 µg/mL (≈ 11.2 µM) | > 64 µg/mL | MIC [12]: 32 µg/mL (≈ 44.8 µM)
CC1=C\[C@@H](O)CC(=O)Cc2nc(co2)C(=O)N2CCC[C@@H]2C(=O)O[C@H]([C@H](C)COC(=O)Nc2cc(C)on2)[C@H](C)/C=C/C(=O)NC\C=C\1 [SA0110225] | > 64 µg/mL | > 64 µg/mL | 64 µg/mL (≈ 95.8 µM) | > 64 µg/mL | > 64 µg/mL | > 64 µg/mL | > 64 µg/mL | 4 µg/mL (≈ 5.99 µM) | 8 µg/mL (≈ 12 µM) | > 64 µg/mL | > 64 µg/mL | 32 µg/mL (≈ 47.9 µM) | > 64 µg/mL | > 64 µg/mL | 64 µg/mL (≈ 95.8 µM) | 64 µg/mL (≈ 95.8 µM) | > 64 µg/mL | 32 µg/mL (≈ 47.9 µM) | 16 µg/mL (≈ 24 µM) | > 64 µg/mL | MIC [12]: > 64 µg/mL
CC(C)[C@H]1OC(=O)[C@H]2CCCN2C(=O)c2coc(n2)CC(=O)C[C@H](O)/C=C/C=C/CNC(=O)/C=C/[C@H]1C [SA0110239] | > 64 µg/mL | > 64 µg/mL | > 64 µg/mL | > 64 µg/mL | > 64 µg/mL | > 64 µg/mL | 64 µg/mL (≈ 125 µM) | 8 µg/mL (≈ 15.6 µM) | 8 µg/mL (≈ 15.6 µM) | > 64 µg/mL | > 64 µg/mL | > 64 µg/mL | > 64 µg/mL | > 64 µg/mL | > 64 µg/mL | > 64 µg/mL | > 64 µg/mL | 64 µg/mL (≈ 125 µM) | > 64 µg/mL | > 64 µg/mL | MIC [12]: > 64 µg/mL
CC1=C\[C@@H](O)CC(=O)Cc2nc(co2)C(=O)N2CCC[C@@H]2C(=O)O[C@H]([C@@H](C)CN2CCN(C)CC2)[C@H](C)/C=C/C(=O)NC\C=C\1 [SA0110241] | > 64 µg/mL | > 64 µg/mL | > 64 µg/mL | > 64 µg/mL | > 64 µg/mL | > 64 µg/mL | > 64 µg/mL | > 64 µg/mL | > 64 µg/mL | > 64 µg/mL | > 64 µg/mL | > 64 µg/mL | > 64 µg/mL | > 64 µg/mL | > 64 µg/mL | > 64 µg/mL | > 64 µg/mL | > 64 µg/mL | > 64 µg/mL | > 64 µg/mL | MIC [12]: > 64 µg/mL
CC1=C\[C@@H](O)CC(=O)Cc2nc(co2)C(=O)N2CCC[C@@H]2C(=O)O[C@H]([C@@H](C)CN2CCC(N(C)C)CC2)[C@H](C)/C=C/C(=O)NC\C=C\1 [SA0110252] | > 64 µg/mL | > 64 µg/mL | > 64 µg/mL | > 64 µg/mL | > 64 µg/mL | > 64 µg/mL | > 64 µg/mL | > 64 µg/mL | > 64 µg/mL | > 64 µg/mL | > 64 µg/mL | > 64 µg/mL | > 64 µg/mL | > 64 µg/mL | > 64 µg/mL | > 64 µg/mL | > 64 µg/mL | > 64 µg/mL | > 64 µg/mL | > 64 µg/mL | MIC [12]: > 64 µg/mL
